# Biological target: FGFR1 (Homo sapiens (Human), UniProt P11362)
# Assay: RBC NanoBRET Assay for Target Engagement in HEK293 cells transfected with FGFR1-NanoLuc Fusion vector
# Assay type: cell-based
# Details: 1 hour, tracer K5 1 μM
# Experimental: Cellular Assay. The RBC NanoBRET Assay for Target Engagement was performed by Reaction Biology Corporation, 1 Great Valley Parkway, Suite 2 Malvern, PA 19355, USA. The assay was conducted in HEK293 cells transiently transfected with FGFR1-NanoLuc Fusion vector. The HEK293 cells (ATCC) were transfected with 1 μg of FGFR1-NanoLuc Fusion vector in 384-well format and the transfected cells were subsequently treated with the test compounds (starting at 10 μM, 10-dose with 3-fold dilution) for 1 hour using CTx-0294885 as the reference standard and K5 (1 μM) was used as the tracer. FGFR1 target engagement was measured and the curve fits were performed only when % NanoBret signal at the highest concentration of compounds was less than 55%.
# FGFR1, sequence (P11362 22-822): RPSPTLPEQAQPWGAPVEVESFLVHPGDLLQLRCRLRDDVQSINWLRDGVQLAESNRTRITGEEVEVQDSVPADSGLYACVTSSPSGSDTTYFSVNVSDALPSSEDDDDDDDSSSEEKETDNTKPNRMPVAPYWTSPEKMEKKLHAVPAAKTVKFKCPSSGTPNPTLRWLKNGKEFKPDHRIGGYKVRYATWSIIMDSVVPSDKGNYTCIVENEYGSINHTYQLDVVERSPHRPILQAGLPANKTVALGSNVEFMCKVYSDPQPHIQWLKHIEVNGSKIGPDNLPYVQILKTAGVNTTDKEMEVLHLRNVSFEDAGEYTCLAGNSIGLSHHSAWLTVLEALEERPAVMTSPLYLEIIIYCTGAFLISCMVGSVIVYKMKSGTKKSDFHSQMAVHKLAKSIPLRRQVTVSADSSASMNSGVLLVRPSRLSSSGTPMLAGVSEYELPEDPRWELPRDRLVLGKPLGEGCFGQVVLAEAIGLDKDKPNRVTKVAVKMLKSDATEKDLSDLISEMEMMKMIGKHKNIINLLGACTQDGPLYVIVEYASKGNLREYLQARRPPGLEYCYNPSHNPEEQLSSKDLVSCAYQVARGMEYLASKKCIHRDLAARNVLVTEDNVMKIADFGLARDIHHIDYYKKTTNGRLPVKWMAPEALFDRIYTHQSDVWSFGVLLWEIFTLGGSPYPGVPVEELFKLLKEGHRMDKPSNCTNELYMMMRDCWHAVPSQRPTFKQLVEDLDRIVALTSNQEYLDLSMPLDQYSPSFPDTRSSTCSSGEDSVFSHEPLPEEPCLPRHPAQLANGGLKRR
smiles,measurement,value
"COc1cc(OC)cc(N(CCNC(C)C)c2ccc3nnc(-c4cnn(C)c4)cc3c2)c1 [Example 1, N^1-(3,5-Dimethoxyphenyl)-N^2-isopropyl-N^1-(3-(1-methyl-1H-pyrazol-4-yl)cinnolin-6-yl)ethane-1,2-diamine]",IC50,9.5 nM
